# Measured values: publication PMC4848510, “Foldamer-mediated manipulation of a pre-amyloid toxin” (Nature Communications, 2016)
# How the values were obtained:
# IAPP = target: T1, IAPP (Homo sapiens, UniProt P10997); test: LUV-catalysed IAPP fibre formation kinetic assay (ThT fluorescence); type: biochemical; conditions: 10 μM IAPP, 1:1 IAPP:small molecule, 630 μM LUVs DOPG:DOPC 1:1; ND = no kinetics over time of observation
# T1 construct: IAPP is a 37-residue peptide co-packaged with insulin in pancreatic β-cells; purchased Genscript; Elim Biopharmaceuticals
# T1 sequence (P10997 34-70 limits assumed): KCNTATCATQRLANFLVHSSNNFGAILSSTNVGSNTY
# Description: Unless otherwise stated, LUVs used in this work were prepared from a 1:1 mixture of DOPG/DOPC. The lyophilized mixture was hydrated in 100 mM KCl, 50 mM sodium phosphate and pH 7.4 for 20 min. A 20mg ml^−1 solution of lipid in buffer was passed 21 times through a polycarbonate membrane (pore diameter=100 nm). The phospholipid content of the final material was measured using a total phosphorous assay.
# (§1) Amyloid reactions were conducted in buffer containing liposome (630 μM lipid) and 20 μM ThT in a black 96-well plate. This was followed by the addition of small molecule dissolved in dimethylsulphoxide (DMSO; final DMSO concentration=0.5%, v/v). Fibre formation was initiated by the addition of IAPP stock solution. The final volume in each well was 200 μl. Kinetics of fibrillation was monitored by ThT fluorescence (excitation 450 nm and emission 485 nm), using a FluoDia T70 fluorescence plate reader (Photon Technology International, Edison, NJ, USA). The data were blank subtracted and renormalized to the maximum intensity of reactions containing only IAPP. Each kinetic trace was fit to a sigmoidal form:
# (§2) where I is the fluorescence intensity, t is time, and b, m and τ are dependent fitting variables. All samples were run at least in triplicate and error bars shown in the text represent ±1 s.d.
# INS-1 cells = test: Rescue of INS-1 cells from IAPP-induced toxicity (CellTiter Blue); conditions: 13 μM IAPP; for rescue of IAPP-induced toxicity, co-addition: small molecule co-added 1:1, 48 h, n=24
# [1] = system: Src and its homologue, Abl; conditions: cited from earlier work
# From the text: Dynamic binding modes, such as conformational selection, are often observed in protein:ligand interactions. A recent example is the anti-cancer drug Gleevec[8]. Gleevec binds to structurally identical sites in Src and its homologue, Abl. […] It stands to reason that the internal degrees of freedom of ligands should be similarly exploitable. However, ligand dynamics are viewed unfavourably as a result of entropy loss on binding. The non-covalent and reversible stabili ...
# [2] = IAPP fibre formation in solution without LUVs (ThT); type: physicochemical, human; conditions: 10 μM IAPP, no LUVs, at least triplicate, ±1 s.d.
# Description: as §1, with “form: […]” for “form:”
# as §2
# Supplementary Figure 1: Kinetic profiles of IAPP self-assembly. a, Three representative kinetic profiles for a standard reaction of 10 µM IAPP catalysed by the presence of 630 µM LUVs (DOPG:DOPC, 1:1, 100 nm) (inset) A representative sigmoid fit (magenta) used to extract reaction midpoints, t50. b, Representative comparison of the kinetic profiles of (10 µM) IAPP fibrillation in the absence (black) and presence (red) of 630 µM LUVs. […]
Molecule,"t50 / (t50 IAPP only), inhibition of LUV-catalysed fibre formation (IAPP)","rescue of IAPP-induced toxicity, co-addition (INS-1 cells)",difference in binding affinity between Src and Abl [1],decrease of INS-1 viability (INS-1 cells; 48 h incubation) [%],reaction midpoint t50 of IAPP assembly into fibres in solution [2] [h]
"O=C(O[C@@H]1Cc2c(O)cc(O)cc2O[C@@H]1c1cc(O)c(O)c(O)c1)c1cc(O)c(O)c(O)c1 [EGCG, epigallocatechin gallate]",no detectable effect,ineffective in rescuing toxicity,,,
Cc1ccc(NC(=O)c2ccc(CN3CCN(C)CC3)cc2)cc1Nc1nccc(-c2cccnc2)n1 [Gleevec],,,"> 1,000 fold",,
CC[C@H](C)[C@H](NC(=O)[C@H](C)NC(=O)CNC(=O)[C@H](Cc1ccccc1)NC(=O)[C@H](CC(N)=O)NC(=O)[C@H](CC(N)=O)NC(=O)[C@H](CO)NC(=O)[C@H](CO)NC(=O)[C@H](Cc1c[nH]cn1)NC(=O)[C@@H](NC(=O)[C@H](CC(C)C)NC(=O)[C@H](Cc1ccccc1)NC(=O)[C@H](CC(N)=O)NC(=O)[C@H](C)NC(=O)[C@H](CC(C)C)NC(=O)[C@H](CCCNC(=N)N)NC(=O)[C@H](CCC(N)=O)NC(=O)[C@@H](NC(=O)[C@H](C)NC(=O)[C@@H]1CSSC[C@H](NC(=O)[C@@H](N)CCCCN)C(=O)N[C@@H](CC(N)=O)C(=O)N[C@@H]([C@@H](C)O)C(=O)N[C@@H](C)C(=O)N[C@@H]([C@@H](C)O)C(=O)N1)[C@@H](C)O)C(C)C)C(=O)N[C@@H](CC(C)C)C(=O)N[C@@H](CO)C(=O)N[C@@H](CO)C(=O)N[C@H](C(=O)N[C@@H](CC(N)=O)C(=O)N[C@H](C(=O)NCC(=O)N[C@@H](CO)C(=O)N[C@@H](CC(N)=O)C(=O)N[C@H](C(=O)N[C@@H](Cc1ccc(O)cc1)C(N)=O)[C@@H](C)O)C(C)C)[C@@H](C)O [IAPP],,,,78±8,18 ± 1.4

# Second part, led by results:
"t50 / (t50 IAPP only), inhibition of LUV-catalysed fibre formation (IAPP)",Molecule,"rescue of IAPP-induced toxicity, co-addition (INS-1 cells)",difference in binding affinity between Src and Abl [1],decrease of INS-1 viability (INS-1 cells; 48 h incubation) [%],reaction midpoint t50 of IAPP assembly into fibres in solution [2] [h]
no detectable effect,Oc1ccc(/C=C/c2cc(O)cc(O)c2)cc1 [resveratrol],ineffective in rescuing toxicity,,,
no detectable effect,acid fuchsin,ineffective in rescuing toxicity,,,
